Patent publication US20220267380A1, “Glycopeptides Increasing Lipid Synthesis” (TFCHEM, priority 2019, published 2022)

Tested on: normal human dermal fibroblasts (NHDF)
Assay: Gene expression in NHDF, full transcriptome analysis with Affymetrix U219 microarray
Assay type: cell-based
Details: NHDF
Experimental: In the present study, the transcriptional effects (modulation of gene expression) of compounds 1, 2, 3 and 4 were evaluated on normal human dermal fibroblasts (NHDF) under basal conditions.
More specifically, the comparative analysis of the different transcriptomic profiles was performed using an Affymetrix GeneAtlas platform and the human “full transcriptome” U219 chip, which includes 36,000 transcripts and variants.
Fibroblasts were seeded in 24-well plates and cultured in culture medium for 24 hours. The medium was then replaced by assay medium and cells were incubated for further 24 hours. The medium was replaced by assay medium containing or not (control) the test compounds at different concentrations and the cells were preincubated for 24 hours. All experimental conditions were performed in triplicate. At the end of incubation, the culture supernatants were removed and the cells were washed in a phosphate buffered saline (PBS) solution and immediately frozen at −80° C.
Before RNA extraction, the replicates were pooled. Total RNA was extracted from each sample using TriPure Isolation Reagent® according to the supplier's instructions. The amount and quality of total RNA were evaluated for all samples using capillary electrophoresis (Bioanalyzer 2100, Agilent technologies). From each RNA, a labeled and amplified anti-sens RNA (aRNA) was obtained using GeneChip 3′IVT PLUS Kit (Affymetrix). For each labeled and amplified aRNA sample the profiles were evaluated before and after fragmentation using capillary electrophoresis (Bioanalyzer 2100, Agilent technologies). Hybridization of fragmented aRNA onto Affymetrix® U219 chip (36,000 transcripts and variants) was performed in the GeneAtlas™ fluidics Affymetrix® hybridization station for 20 hours at 45° C. U219 chip was analyzed using the GeneAtlas™ Imaging station (Affymetrix®—resolution 2 μm) to generate fluorescence intensity data.
Expression Console and Quality controls: data were normalized with the Expression Console (Affymetrix®) software using RMA algorithm. Then a quality control of the labeling and the hybridization was performed. Hybridization and labeling steps successfully passed the quality controls for these experiments.
Data reduction, Excel file description: once normalized with Expression Console, data were transferred into a Microsoft Excel® file in order to go further into data reduction.
Calculation and tools were added in order to rank and sort data, and finally to support data interpretation. Detection thresholds in terms of fold change were defined and applied on normalized data.
Results are considered and presented or commented per gene (and not probe). A probe set is a collection of probes designed to interrogate a given sequence of a gene. For data interpretation, the most important relative expression value obtained with one probe is considered to be representative of the corresponding gene. The file contains the following data: • Relative expression (RE) for each sample, • Fold change calculation, • Gene information.

[1] = relative expression adjusted to detection limit (<20), 10 mg/ml, 24 h

## C[C@H](NC(=O)[C@H](C)NC(=O)[C@@H](N)CCCCNCC(F)(F)[C@]1(O)O[C@H](CO)[C@H](O)[C@H](O)[C@H]1O)C(=O)O [Compound 1]
  effect of treatment of NHDF on lipid synthesis (transcriptional): up regulation of lipid and cholesterol synthesis
10 mg/ml, 24 h, vs control
  Fold change, ABCA1: 2.11
  Fold change, ABHD4: 2.05
  Fold change, ABHD5: 2.63
  Fold change, ACAT2: 2.12
  Fold change, AKR1C1: 2.13
  Fold change, AKR1C2: 2.60
  Fold change, CH25H: 0.36
  Fold change, CYP51A1///LRRD1: 2.20
  Fold change, DHCR7: 3.68
  Fold change, HMGCR: 2.02
  Fold change, HSD17B7: 2.44
  Fold change, HSD17B14: 2.00
  Fold change, IDI1: 2.01
  Fold change, LPIN1: 2.46
  Fold change, LRP8: 2.95
  Fold change, MSMO1: 2.03
  Fold change, MVD: 2.45
  Fold change, NEU1: 2.74
  Fold change, PCYT2: 2.41
  Fold change, PLD1: 2.15
  Fold change, PTPLA: 2.31
  Fold change, SOAT1: 2.01
  Fold change, SREBF1: 3.24
10 mg/ml, 24 h, vs control, probe set 11715460_a_at
  Fold change, DHCR24: 2.05
10 mg/ml, 24 h, vs control, probe set 11716114_x_at
  Fold change, POR: 2.20
10 mg/ml, 24 h, vs control, probe set 11716337_s_at
  Fold change, INSIG1: 2.46
10 mg/ml, 24 h, vs control, probe set 11716338_a_at
  Fold change, INSIG1: 3.42
10 mg/ml, 24 h, vs control, probe set 11716339_a_at
  Fold change, INSIG1: 3.38
10 mg/ml, 24 h, vs control, probe set 11716987_a_at
  Fold change, HMGCS1: 3.15
10 mg/ml, 24 h, vs control, probe set 11717295_s_at
  Fold change, APOD: 0.30
10 mg/ml, 24 h, vs control, probe set 11717620_a_at
  Fold change, LSS: 2.08
10 mg/ml, 24 h, vs control, probe set 11717859_a_at
  Fold change, EBP: 2.68
10 mg/ml, 24 h, vs control, probe set 11718366_s_at
  Fold change, FDPS: 2.02
10 mg/ml, 24 h, vs control, probe set 11719098_a_at
  Fold change, MVK: 2.08
10 mg/ml, 24 h, vs control, probe set 11719908_a_at
  Fold change, GBA///GBAP1: 2.93
10 mg/ml, 24 h, vs control, probe set 11720028_x_at
  Fold change, LDLR: 2.53
10 mg/ml, 24 h, vs control, probe set 11720029_a_at
  Fold change, LDLR: 2.11
10 mg/ml, 24 h, vs control, probe set 11722208_a_at
  Fold change, PTGS1: 2.77
10 mg/ml, 24 h, vs control, probe set 11722209_a_at
  Fold change, PTGS1: 2.62
10 mg/ml, 24 h, vs control, probe set 11722210_a_at
  Fold change, PTGS1: 3.14
10 mg/ml, 24 h, vs control, probe set 11724199_x_at
  Fold change, LSS: 2.21
10 mg/ml, 24 h, vs control, probe set 11724792_a_at
  Fold change, PGS1: 2.01
10 mg/ml, 24 h, vs control, probe set 11730180_s_at
  Fold change, KDSR: 2.16
10 mg/ml, 24 h, vs control, probe set 11730181_s_at
  Fold change, KDSR: 2.29
10 mg/ml, 24 h, vs control, probe set 11731324_a_at
  Fold change, LSS: 2.53
10 mg/ml, 24 h, vs control, probe set 11736100_a_at
  Fold change, GBA: 2.74
10 mg/ml, 24 h, vs control, probe set 11736285_a_at
  Fold change, CHKA: 2.27
10 mg/ml, 24 h, vs control, probe set 11736286_a_at
  Fold change, CHKA: 3.00
10 mg/ml, 24 h, vs control, probe set 11737039_a_at
  Fold change, PHLDB2: 2.96
10 mg/ml, 24 h, vs control, probe set 11737041_a_at
  Fold change, PHLDB2: 2.45
10 mg/ml, 24 h, vs control, probe set 11737042_s_at
  Fold change, PHLDB2: 2.97
10 mg/ml, 24 h, vs control, probe set 11737043_x_at
  Fold change, PHLDB2: 2.47
10 mg/ml, 24 h, vs control, probe set 11743916_a_at
  Fold change, NPC1: 6.53
10 mg/ml, 24 h, vs control, probe set 11744899_a_at
  Fold change, FADS2: 2.64
10 mg/ml, 24 h, vs control, probe set 11744902_a_at
  Fold change, FADS2: 2.09
10 mg/ml, 24 h, vs control, probe set 11745459_a_at
  Fold change, FADS1///MIR1908: 4.20
10 mg/ml, 24 h, vs control, probe set 11746281_a_at
  Fold change, LPCAT3: 2.31
10 mg/ml, 24 h, vs control, probe set 11746723_a_at
  Fold change, NPC1: 4.53
10 mg/ml, 24 h, vs control, probe set 11746974_a_at
  Fold change, LDLR: 2.99
10 mg/ml, 24 h, vs control, probe set 11747747_a_at
  Fold change, MVK: 2.02
10 mg/ml, 24 h, vs control, probe set 11748045_x_at
  Fold change, LDLR: 2.84
10 mg/ml, 24 h, vs control, probe set 11748292_a_at
  Fold change, GBA///GBAP1: 2.57
10 mg/ml, 24 h, vs control, probe set 11748368_x_at
  Fold change, POR: 2.03
10 mg/ml, 24 h, vs control, probe set 11748428_a_at
  Fold change, PGS1: 2.41
10 mg/ml, 24 h, vs control, probe set 11749042_a_at
  Fold change, DHCR24: 2.15
10 mg/ml, 24 h, vs control, probe set 11749332_x_at
  Fold change, EBP: 2.66
10 mg/ml, 24 h, vs control, probe set 11749730_a_at
  Fold change, PTGS1: 3.89
10 mg/ml, 24 h, vs control, probe set 11750975_x_at
  Fold change, GBA: 2.68
10 mg/ml, 24 h, vs control, probe set 11751085_a_at
  Fold change, GBA: 3.02
10 mg/ml, 24 h, vs control, probe set 11751086_x_at
  Fold change, GBA: 2.37
10 mg/ml, 24 h, vs control, probe set 11751098_a_at
  Fold change, GBA///GBAP1: 3.03
10 mg/ml, 24 h, vs control, probe set 11751099_x_at
  Fold change, GBA///GBAP1: 2.75
10 mg/ml, 24 h, vs control, probe set 11751337_a_at
  Fold change, DHCR24: 2.27
10 mg/ml, 24 h, vs control, probe set 11751338_x_at
  Fold change, DHCR24: 2.26
10 mg/ml, 24 h, vs control, probe set 11752670_a_at
  Fold change, FADS1///MIR1908: 4.05
10 mg/ml, 24 h, vs control, probe set 11753439_a_at
  Fold change, GBA///GBAP1: 2.64
10 mg/ml, 24 h, vs control, probe set 11754819_x_at
  Fold change, GBA///GBAP1: 2.59
10 mg/ml, 24 h, vs control, probe set 11754918_s_at
  Fold change, HMGCS1: 2.32
10 mg/ml, 24 h, vs control, probe set 11754939_x_at
  Fold change, FADS2: 2.11
10 mg/ml, 24 h, vs control, probe set 11755123_x_at
  Fold change, LPCAT3: 2.37
10 mg/ml, 24 h, vs control, probe set 11755251_x_at
  Fold change, FADS1///MIR1908: 4.13
10 mg/ml, 24 h, vs control, probe set 11756065_x_at
  Fold change, APOD: 0.24
10 mg/ml, 24 h, vs control, probe set 11757008_a_at
  Fold change, LPCAT3: 2.86
10 mg/ml, 24 h, vs control, probe set 11757009_x_at
  Fold change, LPCAT3: 2.10
10 mg/ml, 24 h, vs control, probe set 11758249_s_at
  Fold change, FDPS: 2.10
[1]
  REadj2, ABCA1: 979.20
  REadj2, ABHD4: 65.43
  REadj2, ABHD5: 212.72
  REadj2, ACAT2: 1280.94
  REadj2, AKR1C1: 3725.47
  REadj2, AKR1C2: 209.16
  REadj2, CH25H: 60.89
  REadj2, CYP51A1///LRRD1: 1291.92
  REadj2, DHCR7: 695.09
  REadj2, HMGCR: 395.78
  REadj2, HSD17B7: 91.10
  REadj2, HSD17B14: 46.74
  REadj2, IDI1: 1244.81
  REadj2, LPIN1: 240.89
  REadj2, LRP8: 93.15
  REadj2, MSMO1: 1789.72
  REadj2, MVD: 262.34
  REadj2, NEU1: 555.40
